Measurements: patent US20250270182A1, “Composition Comprising an Antimicrobial Agent and an Alkyl Ketal Ester Compound” (Symrise AG, priority 2022, published 2025)

Legend:
Test in all cases: Minimum Inhibitory Concentration (MIC) test, growth inhibition in 96 well plates
Format in all cases: cell-based
Escherichia coli = details: lowest concentration with complete growth inhibition, optical density, substances solved in DMSO; for MIC: Escherichia coli, read-out: MIC in ppm Escherichia coli
Experimental: (§1) The Minimum Inhibitory Concentration (MIC) test is a test on growth inhibition. The estimation of MICs is executed in 96 well plates. Through the comparison of bacterial growth with positive and negative controls via optical density (OD), different concentrations of given test substances are evaluated. Bacteria were cultivated under adjusted conditions based on information of the German Collection of Microorganisms and Cell Cultures (DSMZ) and stored in 10% or 50% glycerol prior to use. Afterwards, the following method was applied: Growth medium (according to microorganism) was added to each well of the microplate. Then, the test-substances, solved in DMSO, were added in different concentrations, positive controls (water controls only with medium), solvent controls (DMSO controls only with medium), and negative controls (benchmarks according to organism). Finally, the microorganisms were added in a concentration of 1 to 6×10^6 CFU/ml (CFU=colony forming units). The incubation of the microplates was carried out at appropriate conditions. According to the resulting growth, substance concentrations are labelled either as inhibiting or not and MIC is defined as the lowest concentration where a complete growth inhibition is visible. Experiments at concentration limits (highest concentration labelled as growth and lowest concentration labelled as inhibiting) are performed at least twice. The synergistic activity of NxtSolv 320 (Ethyl propylene glycol acetal levulinate) and Nxt Solv 420 (Ethyl glycerine acetal levulinate) in combination with different antimicrobial compounds was determined by measuring the Minimum Inhibitory Concentrations (MIC) according to the method as described above. […] In special occasions, intermediate dilution steps were performed to further improve the MIC resolution. […] To verify that the tested combinations act synergistically against microorganisms, corresponding experiments were conducted with Staphylococcus aureus, Candida albicans, Aspergillus brasiliensis, Pseudomonas aeruginosa and Escherichia coli. […] In order to calculate the synergy index with MIC values, the Kull equation was used as follows: […]

Staphylococcus aureus = details: lowest concentration with complete growth inhibition, optical density, substances solved in DMSO; for MIC: Staphylococcus aureus, read-out: MIC in ppm Staphylococcus aureus
Experimental: as §1

Candida albicans = details: lowest concentration with complete growth inhibition, optical density, substances solved in DMSO; for MIC: Candida albicans, read-out: MIC in ppm Candida albicans
Experimental: as §1

Pseudomonas aeruginosa = details: lowest concentration with complete growth inhibition, optical density, substances solved in DMSO; for MIC: Pseudomonas aeruginosa, read-out: MIC in ppm Pseudomonas aeruginosa
Experimental: as §1

Aspergillus brasiliensis = details: lowest concentration with complete growth inhibition, optical density, substances solved in DMSO; for MIC: Aspergillus brasiliensis, read-out: MIC in ppm Aspergillus brasiliensis
Experimental: as §1

| MIC (Escherichia coli) [mg/mL] | MIC (Staphylococcus aureus) [mg/mL] | MIC (Candida albicans) [mg/mL] | MIC (Pseudomonas aeruginosa) [mg/mL] | MIC (Aspergillus brasiliensis) [mg/mL] | MIC in ppm Escherichia coli (Escherichia coli) | MIC in ppm Staphylococcus aureus (Staphylococcus aureus) | MIC in ppm Candida albicans (Candida albicans) | MIC in ppm Pseudomonas aeruginosa (Pseudomonas aeruginosa) | MIC in ppm Aspergillus brasiliensis (Aspergillus brasiliensis) | Structure (SMILES) |
| --- | --- | --- | --- | --- | --- | --- | --- | --- | --- | --- |
| 15 | 35 | 12.5 | 30 | 17.5 |  |  |  |  |  | CCCC(O)CO (centres unmarked) [1,2-Pentanediol] |
| 25 | 17.5 | 25 | 35 | 15 |  |  |  |  |  | CCOC(=O)CCC1(C)OCC(CO)O1 (centres unmarked) [Ethyl glycerine acetal levulinate, ethyl glycerine acetal levulinate] |
|  |  |  |  |  | 2,500 ppm | 1,000 ppm | 1,000 ppm | 50,000 ppm | 1,000 ppm | CCCCC(CC)COCC(O)CO (centres unmarked) [Ethylhexylglycerin] |
|  |  |  |  |  | 2,500 ppm | 5,000 ppm | 6,000 ppm | 4,000 ppm | 2,500 ppm | CC(=O)c1ccc(O)cc1 [4-Hydroxyacetophenone] |
